{"source": "paper PMC5653977", "about": "(EMBO Molecular Medicine, 2017)", "note": "Counter-ions that a name gives are not always drawn. *1 amine or outer side, *2 acyl side, *3 side chain or, on linkers, in order; H or OH if unused. Where a SMILES comes first, the peptide text is derived from it. Bridges are numbered along the chain shown (N, C = ends). Roman numbers before positions name the chains, in order. [ ]: non-standard residue; d: D form. Actinocin(9to1) = Cc1c2oc3c(C)ccc(C(=O)[*:1])c3nc-2c(C(=O)[*:2])c(N)c1=O; NMeV = CN[C@H](C(=O)O)C(C)C; Sar = CNCC(=O)O"}
{"system": "NRG1-ERBB4 signaling", "assay": "Nrg1-ERBB4-PIK3R1 split TEV co-culture compound screen of the NIH Clinical Collection", "assay_type": "cell-based, human", "conditions": "not given"}
{"smiles": "O=P1(N(CCCl)CCCl)NCCCO1", "note": "(stereo not shown) [Cytoxan, reference compound]", "Z-SCORE": -0.97}
{"smiles": "CNCC[C@H](Oc1cccc2ccccc12)c1cccs1", "note": "[DULOXETINE HCl]", "Z-SCORE": -0.22}
{"system": "NRG1-ERBB4 signaling", "assay": "Nrg1-ERBB4-PIK3R1 split TEV co-culture compound screen of the NIH Clinical Collection", "assay_type": "cell-based, human", "conditions": "NIH Clinical Collection NCC-003 raw data; compounds ranked by Z-score; 'flagged' given instead of a Z-score"}
{"smiles": "Cc1c2oc3c(C)ccc(C(=O)N[C@@H]4C(=O)N[C@H](C(C)C)C(=O)N5CCC[C@H]5C(=O)N(C)CC(=O)N(C)[C@@H](C(C)C)C(=O)O[C@@H]4C)c3nc-2c(C(=O)N[C@@H]2C(=O)N[C@H](C(C)C)C(=O)N3CCC[C@H]3C(=O)N(C)CC(=O)N(C)[C@@H](C(C)C)C(=O)O[C@@H]2C)c(N)c1=O", "note": "[DACTINOMYCIN] (I: T[dV]P[Sar][NMeV] / II: T[dV]P[Sar][NMeV]; ester I:1-I:C, II:1-II:C; linker I:N-II:N via Actinocin(9to1))", "Z-SCORE": "flagged"}
{"smiles": "CC(=O)O[C@@]12CO[C@@H]1C[C@H](O)[C@@]1(C)C(=O)[C@H](O)C3=C(C)[C@@H](OC(=O)[C@H](O)[C@@H](NC(=O)OC(C)(C)C)c4ccccc4)C[C@@](O)([C@@H](OC(=O)c4ccccc4)[C@H]21)C3(C)C", "note": "[DOCETAXEL]", "Z-SCORE": -1.13}
{"smiles": "COc1cccc2c1C(=O)c1c(O)c3c(c(O)c1C2=O)C[C@@](O)(C(=O)CO)C[C@@H]3O[C@H]1C[C@H](N)[C@H](O)[C@H](C)O1", "note": "[DOXORUBICIN HYDROCHLORIDE]", "Z-SCORE": "flagged"}
{"system": "NRG1-ERBB4 signaling", "assay": "Nrg1-ERBB4-PIK3R1 split TEV co-culture compound screen of the NIH Clinical Collection", "assay_type": "cell-based, human", "conditions": "compound screen of the NIH Clinical Collection, sheet raw data NCC-003; compounds ranked by Z-score"}
{"smiles": "CN(C)CCC(c1ccc(Cl)cc1)c1ccccn1", "note": "(stereo not shown) [Chlorpheniramine]", "Z-SCORE": -0.07}
{"smiles": "CN(C)CCCSc1ccccc1NC(=O)/C=C/c1ccccc1", "note": "[Cinanserin]", "Z-SCORE": -0.77}
{"smiles": "COc1cc(N)c(Cl)cc1C(=O)NC1CCN(CCCOc2ccc(F)cc2)CC1OC", "note": "(stereo not shown) [Cisapride]", "Z-SCORE": -0.15}
{"smiles": "CN(C)CCCC1(c2ccc(F)cc2)OCc2cc(C#N)ccc21", "note": "(stereo not shown) [Citalopram hydrobromide]", "Z-SCORE": -0.45}
{"smiles": "NC(=NCc1ccc(Cl)cc1)SCCCc1cnc[nH]1", "note": "[Clobenpropit]", "Z-SCORE": -0.9}
{"smiles": "CN1CCC(=C2c3ccccc3C=Cc3ccccc32)CC1", "note": "[Cyproheptadine hydrochloride]", "Z-SCORE": 0.2}
{"smiles": "N[C@@H]1CON=C1O", "note": "[D-CYCLOSERINE, reference compound]", "Z-SCORE": 2.86}
{"smiles": "C[C@H](CCC(=O)O)[C@H]1CC[C@H]2[C@@H]3C(=O)C[C@@H]4CC(=O)CC[C@]4(C)[C@H]3CC(=O)[C@]12C", "note": "[DEHYDROCHOLIC ACID]", "Z-SCORE": -0.51}
{"smiles": "C[C@]12CC[C@H](O)CC1=CC[C@@H]1[C@@H]2CC[C@]2(C)C(=O)CC[C@@H]12", "note": "[DEHYDROEPIANDROSTERONE]", "Z-SCORE": 0.4}
{"smiles": "C[C@@H]1C[C@H]2[C@@H]3CCC4=CC(=O)C=C[C@]4(C)[C@@]3(F)[C@@H](O)C[C@]2(C)[C@H]1C(=O)CO", "note": "[DESOXIMETASONE]", "Z-SCORE": -0.5}
{"smiles": "CN(C)CC[C@@H](c1ccc(Br)cc1)c1ccccn1", "note": "[DEXBROMPHENIRAMINE MALEATE]", "Z-SCORE": -0.74}
{"smiles": "CN(C)CC[C@@H](c1ccc(Cl)cc1)c1ccccn1", "note": "[DEXCHLORPHENIRAMINE MALEATE]", "Z-SCORE": -0.67}
{"smiles": "CC1=NS(=O)(=O)c2cc(Cl)ccc2N1", "note": "[DIAZOXIDE]", "Z-SCORE": 2.34}
{"smiles": "O=C(O)C(Cl)Cl", "note": "[DICHLOROACETIC ACID]", "Z-SCORE": 1.9}
{"smiles": "CN(C)CCOC(c1ccccc1)c1ccccc1", "note": "[DIPHENHYDRAMINE HYDROCHLORIDE]", "Z-SCORE": 1.01}
{"smiles": "CCOC(=O)C1(c2ccccc2)CCN(CCC(C#N)(c2ccccc2)c2ccccc2)CC1", "note": "[DIPHENOXYLATE]", "Z-SCORE": -0.45}
{"smiles": "CN(CCOc1ccc(NS(C)(=O)=O)cc1)CCc1ccc(NS(C)(=O)=O)cc1", "note": "[DOFETILIDE]", "Z-SCORE": 0}
{"smiles": "CS(=O)(=O)O.O=C(O[C@H]1C[C@H]2CC3C[C@@H](C1)N2CC3=O)c1c[nH]c2ccccc12", "note": "[DOLASETRON MESYLATE]", "Z-SCORE": 0.23}
{"smiles": "CCN1CC(CCN2CCOCC2)C(c2ccccc2)(c2ccccc2)C1=O.Cl", "note": "(stereo not shown) [DOXAPRAM HYDROCHLORIDE]", "Z-SCORE": -0.46}
{"smiles": "O=C(CCCN1CC=C(n2c(=O)[nH]c3ccccc32)CC1)c1ccc(F)cc1", "note": "[DROPERIDOL]", "Z-SCORE": -0.96}
{"system": "NRG1-ERBB4 signaling", "assay": "Nrg1-ERBB4-PIK3R1 split TEV co-culture compound screen of the NIH Clinical Collection", "assay_type": "cell-based, human", "conditions": "compounds at 10 μM, 24 h; PC12 split TEV assay cells co-cultured with Nrg1-expressing PC12 cells; analysed with cellHTS2"}
{"smiles": "Oc1c(Cl)cc(Cl)c2cccnc12", "note": "[Chloroxine, reference compound]", "Z-SCORE": "flagged"}
{"smiles": "CCCNC(=O)NS(=O)(=O)c1ccc(Cl)cc1", "note": "[Chlorpropamide, reference compound]", "Z-SCORE": -0.07}
{"smiles": "NS(=O)(=O)c1cc(C2(O)NC(=O)c3ccccc32)ccc1Cl", "note": "(stereo not shown) [Chlorthalidone, reference compound]", "Z-SCORE": 0.87}
{"smiles": "CN/C(=N/CCSCc1nc[nH]c1C)NC#N", "note": "[Cimetidine, reference compound]", "Z-SCORE": -0.45}
{"smiles": "CN(C)CCCC1(c2ccc(F)cc2)OCc2cc(C#N)ccc21", "note": "(stereo not shown) [Citalopram, reference compound]", "Z-SCORE": -1.5}
{"smiles": "CCN(CC)CCOc1ccc(C(=C(Cl)c2ccccc2)c2ccccc2)cc1", "note": "[Clomid, reference compound]", "Z-SCORE": -1.33}
{"smiles": "CN1CCN(C2=Nc3cc(Cl)ccc3Nc3ccccc32)CC1", "note": "[Clozapine, reference compound]", "Z-SCORE": -0.31}
{"smiles": "CN1[C@@H]2CC[C@H]1C[C@@H](OC(c1ccccc1)c1ccccc1)C2.CS(=O)(=O)O", "note": "[Cogentin Mesylate, reference compound]", "Z-SCORE": -2.36}
{"smiles": "O=C(O)c1cc(=O)c2c(OCC(O)COc3cccc4oc(C(=O)O)cc(=O)c34)cccc2o1", "note": "[Cromolyn Sodium, reference compound]", "Z-SCORE": 1.88}
{"smiles": "N[C@@H]1CON=C1O", "note": "[D-CYCLOSERINE, reference compound]", "Z-SCORE": -0.66}
{"smiles": "C#C[C@]1(O)CC[C@H]2[C@@H]3CCC4=Cc5oncc5C[C@]4(C)[C@H]3CC[C@@]21C", "note": "[DANAZOL, reference compound]", "Z-SCORE": -0.3}
{"smiles": "COc1cccc2c1C(=O)c1c(O)c3c(c(O)c1C2=O)C[C@@](O)(C(C)=O)C[C@@H]3O[C@H]1C[C@H](N)[C@H](O)[C@H](C)O1", "note": "[DAUNORUBICIN HYDROCHLORIDE, reference compound]", "Z-SCORE": "flagged"}
{"smiles": "CC(=O)OCC(=O)[C@@]1(O)CC[C@H]2[C@@H]3C[C@H](C)C4=CC(=O)C=C[C@]4(C)[C@H]3[C@@H](O)C[C@@]21C", "note": "[DEPO-MEDROL, reference compound]", "Z-SCORE": 0.97}
{"smiles": "C#CCN(C)[C@H](C)Cc1ccccc1.Cl", "note": "[DEPRENALIN, reference compound]", "Z-SCORE": 0.31}
{"smiles": "Cc1onc(-c2c(Cl)cccc2Cl)c1C(=O)N[C@@H]1C(=O)N2[C@@H]1SC(C)(C)[C@@H]2C(=O)O", "note": "[DICLOXACILLIN SODIUM, reference compound]", "Z-SCORE": 0.28}
{"smiles": "C[C@H]1O[C@@H](O[C@H]2[C@@H](O)C[C@H](O[C@H]3[C@@H](O)C[C@H](O[C@H]4CC[C@@]5(C)[C@H](CC[C@@H]6[C@@H]5C[C@@H](O)[C@]5(C)[C@@H](C7=CC(=O)OC7)CC[C@]65O)C4)O[C@@H]3C)O[C@@H]2C)C[C@H](O)[C@@H]1O", "note": "[DIGOXIN, reference compound]", "Z-SCORE": -1.73}
{"smiles": "OCCN(CCO)c1nc(N2CCCCC2)c2nc(N(CCO)CCO)nc(N3CCCCC3)c2n1", "note": "[DIPYRIDAMOLE, reference compound]", "Z-SCORE": -1.46}
{"smiles": "CN(C)CCC=C1c2ccccc2COc2ccccc21", "note": "[DOXEPIN HYDROCHLORIDE, reference compound]", "Z-SCORE": 1.31}
{"smiles": "C[C@H]1c2cccc(O)c2C(=O)C2=C(O)[C@]3(O)C(=O)C(C(N)=O)=C(O)[C@@H](N(C)C)[C@@H]3[C@@H](O)[C@@H]21", "note": "[DOXYCYCLINE, reference compound]", "Z-SCORE": -0.93}
{"smiles": "O=C1CN(/N=C/c2ccc(-c3ccc([N+](=O)[O-])cc3)o2)C(=O)[N-]1.[Na+]", "note": "[Dantrolene sodium salt, reference compound]", "Z-SCORE": 0.78}
{"smiles": "Nc1ccc(S(=O)(=O)c2ccc(N)cc2)cc1", "note": "[Dapsone, reference compound]", "Z-SCORE": -0.6}
